Experimental data as given in patent US9938281B2 (Merck Sharp & Dohme Corp., priority 2012, dated 2018).

Legend:
[1] = target: T1, PI3K-alpha (Homo sapiens, UniProt P42336); assay: HTRF PI3K biochemical assay, alpha isoform; conditions: ratio PI3K-alpha IC50 value / PI3K-delta IC50 value
T1 construct: purchased Upstate; Millipore 14-602

[2] = target: T2, PI3K-delta (Homo sapiens, UniProt O00329); assay: HTRF PI3K biochemical assay, delta isoform; conditions: form screened (neutral or TFA salt) given, read-out: PI3Kdelta IC50
T2 construct: purchased Upstate; Millipore 14-604
T2 sequence (O00329 whole entry, canonical isoform): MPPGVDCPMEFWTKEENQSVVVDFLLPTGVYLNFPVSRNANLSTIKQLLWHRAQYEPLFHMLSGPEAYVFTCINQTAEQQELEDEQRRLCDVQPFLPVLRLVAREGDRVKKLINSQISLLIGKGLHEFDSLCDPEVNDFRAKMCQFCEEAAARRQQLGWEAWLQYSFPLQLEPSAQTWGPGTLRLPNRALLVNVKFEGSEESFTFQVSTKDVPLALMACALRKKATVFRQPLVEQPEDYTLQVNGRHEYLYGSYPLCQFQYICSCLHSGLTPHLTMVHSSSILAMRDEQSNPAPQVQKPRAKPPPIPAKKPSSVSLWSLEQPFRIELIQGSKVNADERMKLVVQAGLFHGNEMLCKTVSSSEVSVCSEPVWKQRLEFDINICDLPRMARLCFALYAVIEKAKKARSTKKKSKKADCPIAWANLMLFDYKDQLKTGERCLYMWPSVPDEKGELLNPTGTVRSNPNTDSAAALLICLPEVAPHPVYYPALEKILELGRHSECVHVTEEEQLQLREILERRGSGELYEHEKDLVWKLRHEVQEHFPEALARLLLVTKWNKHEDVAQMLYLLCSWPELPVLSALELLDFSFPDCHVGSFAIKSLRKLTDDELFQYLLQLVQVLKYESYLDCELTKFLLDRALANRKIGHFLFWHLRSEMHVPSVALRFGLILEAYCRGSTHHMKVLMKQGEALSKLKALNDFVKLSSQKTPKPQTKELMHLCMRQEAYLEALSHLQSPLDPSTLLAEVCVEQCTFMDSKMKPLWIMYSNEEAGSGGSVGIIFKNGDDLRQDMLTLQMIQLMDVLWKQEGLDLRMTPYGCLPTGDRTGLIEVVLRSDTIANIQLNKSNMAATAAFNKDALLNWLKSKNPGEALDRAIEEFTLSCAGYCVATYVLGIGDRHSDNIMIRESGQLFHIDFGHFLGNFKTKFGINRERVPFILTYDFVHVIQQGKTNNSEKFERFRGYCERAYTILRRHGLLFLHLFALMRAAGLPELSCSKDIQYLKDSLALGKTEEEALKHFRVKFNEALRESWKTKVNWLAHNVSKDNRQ
T2 sequence (P27986 whole entry partner, canonical isoform): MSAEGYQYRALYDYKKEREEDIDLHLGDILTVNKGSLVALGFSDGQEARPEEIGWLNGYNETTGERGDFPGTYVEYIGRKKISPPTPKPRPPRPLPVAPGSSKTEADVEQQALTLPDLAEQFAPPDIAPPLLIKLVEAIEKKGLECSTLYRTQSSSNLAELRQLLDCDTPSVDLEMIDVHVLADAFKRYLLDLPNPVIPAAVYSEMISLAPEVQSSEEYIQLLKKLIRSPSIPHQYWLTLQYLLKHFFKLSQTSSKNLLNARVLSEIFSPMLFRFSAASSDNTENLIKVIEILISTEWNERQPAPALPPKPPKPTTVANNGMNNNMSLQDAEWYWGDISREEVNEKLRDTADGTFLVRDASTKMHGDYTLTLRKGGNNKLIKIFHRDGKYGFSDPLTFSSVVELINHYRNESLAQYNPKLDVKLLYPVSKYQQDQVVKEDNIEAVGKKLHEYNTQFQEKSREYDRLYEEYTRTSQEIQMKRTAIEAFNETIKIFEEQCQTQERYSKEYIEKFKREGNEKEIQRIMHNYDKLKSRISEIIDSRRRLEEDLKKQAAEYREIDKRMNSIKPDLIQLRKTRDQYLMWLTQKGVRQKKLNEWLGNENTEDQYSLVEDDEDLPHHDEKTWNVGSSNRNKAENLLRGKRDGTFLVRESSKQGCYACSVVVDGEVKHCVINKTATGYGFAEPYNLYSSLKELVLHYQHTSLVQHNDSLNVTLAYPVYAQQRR

T1 sequence (P42336 whole entry, canonical isoform): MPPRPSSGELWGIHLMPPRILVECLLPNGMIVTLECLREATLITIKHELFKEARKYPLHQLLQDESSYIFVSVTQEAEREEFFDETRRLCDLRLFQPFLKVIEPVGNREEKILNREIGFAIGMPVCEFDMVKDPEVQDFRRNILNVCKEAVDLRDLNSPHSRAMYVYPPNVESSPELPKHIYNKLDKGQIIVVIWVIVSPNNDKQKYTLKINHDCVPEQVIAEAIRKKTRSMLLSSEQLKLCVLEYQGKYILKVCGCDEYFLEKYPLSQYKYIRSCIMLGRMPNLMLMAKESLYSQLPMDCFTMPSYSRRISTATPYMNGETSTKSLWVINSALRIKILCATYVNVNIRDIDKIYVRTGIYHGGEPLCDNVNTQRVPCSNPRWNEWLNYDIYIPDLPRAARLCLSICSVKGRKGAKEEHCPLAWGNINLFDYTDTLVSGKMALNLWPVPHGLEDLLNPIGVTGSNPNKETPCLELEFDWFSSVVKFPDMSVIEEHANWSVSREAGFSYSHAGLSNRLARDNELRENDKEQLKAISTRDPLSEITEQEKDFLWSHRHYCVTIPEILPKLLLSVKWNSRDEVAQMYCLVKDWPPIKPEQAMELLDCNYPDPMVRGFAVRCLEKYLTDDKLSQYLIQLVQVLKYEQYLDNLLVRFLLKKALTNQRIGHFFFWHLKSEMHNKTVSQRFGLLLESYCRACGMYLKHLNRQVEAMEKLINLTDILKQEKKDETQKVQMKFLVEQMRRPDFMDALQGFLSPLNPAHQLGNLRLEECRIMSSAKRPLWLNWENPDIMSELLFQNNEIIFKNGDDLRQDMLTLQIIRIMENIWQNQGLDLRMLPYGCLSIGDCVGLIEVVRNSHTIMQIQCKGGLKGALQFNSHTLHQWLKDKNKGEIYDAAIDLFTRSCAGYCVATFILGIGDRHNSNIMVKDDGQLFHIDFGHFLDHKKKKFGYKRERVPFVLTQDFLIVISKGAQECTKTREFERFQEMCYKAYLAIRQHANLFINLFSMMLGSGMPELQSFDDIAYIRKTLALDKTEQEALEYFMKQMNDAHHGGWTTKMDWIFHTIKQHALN
T1 sequence (P27986 whole entry partner, canonical isoform): as the sequence (P27986 whole entry partner, canonical isoform) above

Row | Selectivity versus PI3Kalpha [1] | IC50 [2] [nM] | Compound
1 | >10 | 3.4 | CCn1c(-c2cnc(C)nc2)nc2c(NC3CN(C(=O)C4CC4)CC3C)ncnc21 (racemic) [Compound 3-16, N-[(3R,4R and 3S,4S)-1-(cyclopropylcarbonyl)-4-methylpyrrolidin-3-yl]-9-ethyl-8-(2-methylpyrimidin-5-yl)-9H-purin-6-amine]
2 | >10 | 1.8 | CCn1c(-c2cncc(Cl)c2)nc2c(N[C@H]3CCN(C(=O)C4CC4)C3)ncnc21 [Compound 3-38, 8-(5-chloropyridin-3-yl)-N-[(3S)-1-(cyclopropylcarbonyl)pyrrolidin-3-yl]-9-ethyl-9H-purin-6-amine]
3 | >10 | 2 | CCn1c(-c2cnc(C)nc2)nc2c(N[C@H]3CCN(C(=O)OCc4ccccc4)C3)ncnc21 [Compound 13-10, benzyl (3S)-3-{[9-ethyl-8-(2-methylpyrimidin-5-yl)-9H-purin-6-yl]amino}pyrrolidine-1-carboxylate]
4 | >10 | 29 | CCn1c(-c2cnc(C)nc2)nc2c(N[C@H]3CN[C@@H](C(=O)N(C)C4CC4)C3)ncnc21 [Compound 15-13, (4R)-N-cyclopropyl-4-{[9-ethyl-8-(2-methylpyrimidin-5-yl)-9H-purin-6-yl]amino}-N-methyl-D-prolinamide]
5 | >10 | < 1 | CCn1c(-c2cnc3[nH]ccc3c2)nc2c(N[C@H]3CCN(C(=O)C4CC4)C3)ncnc21 [Compound 3-24, N-[(3S)-1-(cyclopropylcarbonyl)pyrrolidin-3-yl]-9-ethyl-8-(1H-pyrrolo[2,3-b]pyridin-5-yl)-9H-purin-6-amine]
6 | >10 | 62 | CCn1c(C(=O)NC2COC2)nc2c(N[C@H]3CCN(C(=O)C4CC4)C3)ncnc21 [Compound 6-6, 6-{[(3S)-1-(cyclopropylcarbonyl)pyrrolidin-3-yl]amino}-9-ethyl-N-oxetan-3-yl-9H-purine-8-carboxamide]
7 | >10 | 6.4 | CCn1c(-c2cnc(C)nc2)nc2c(N[C@H]3CCN(C(=O)NCC4CC4)C3)ncnc21 [Compound 12-7, (3S)-N-(cyclopropylmethyl)-3-{[9-ethyl-8-(2-methylpyrimidin-5-yl)-9H-purin-6-yl]amino}pyrrolidine-1-carboxamide]
8 | >10 | 6 | CCn1c(-c2cnc(C)nc2)nc2c(N[C@H]3CCN(C(=O)C4(C#N)CCCC4)C3)ncnc21 [Compound 2-62, 1-{[(3S)-3-{[9-ethyl-8-(2-methylpyrimidin-5-yl)-9H-purin-6-yl]amino}pyrrolidin-1-yl]carbonyl}cyclopentanecarbo-nitrile]
9 | >10 | 1.7 | CCn1c(-c2cnc(C)nc2)nc2c(N[C@H]3CCN(C(=O)[C@H]4C[C@H](OC)C4)C3)ncnc21 [Compound 2-38, 9-ethyl-N-{(3S)-1-[(trans-3-methoxycyclobutyl)carbonyl]pyrrolidin-3-yl}-8-(2-methylpyrimidin-5-yl)-9H-purin-6-amine]
10 | >10 | < 1 | CCn1c(-c2cnc(C)nc2)nc2c(N[C@H]3CCN(C(=O)C4CC(O)C4)C3)ncnc21 (mixture of isomers) [Compound 2-63, (cis and trans)-3-{[(3S)-3-{[9-ethyl-8-(2-methylpyrimidin-5-yl)-9H-purin-6-yl]amino}pyrrolidin-1-yl]carbonyl}cyclobutanol]
11 | >10 | 580 | Cc1ncc(-c2nc3c(N[C@H]4CCN(C(=O)C5CC5)C4)ncnc3n2CC(F)(F)F)cn1 [Compound 9-5, N-[(3S)-1-(cyclopropylcarbonyl)pyrrolidin-3-yl]-8-(2-methylpyrimidin-5-yl)-9-(2,2,2-trifluoroethyl)-9H-purin-6-amine]
12 | >10 | 39 | CCn1c(C(F)F)nc2c(N[C@H]3CCN(C(=O)c4ccn(C)n4)C3)ncnc21 [Compound 7-12, 8-(difluoromethyl)-9-ethyl-N-{(3S)-1-[(1-methyl-1H-pyrazol-3-yl)carbonyl]pyrrolidin-3-yl}-9H-purin-6-amine]
13 | >10 | 4.3 | CCn1c(-c2cnc(C)nc2)nc2c(NC3CCC(=O)N(CC4CC4)C3)ncnc21 (single isomer, unassigned) [Compound 14-6, 5(S or R)-1-(cyclopropylmethyl)-5-{[9-ethyl-8-(2-methylpyrimidin-5-yl)-9H-purin-6-yl]amino}piperidin-2-one]
14 | >10 | 380 | CCn1c(C(F)F)nc2c(N[C@H]3CCN(C(=O)[C@H]4CCCN4C)C3)ncnc21 [Compound 7-19, 8-(difluoromethyl)-9-ethyl-N-[(3S)-1-(1-methyl-D-prolyl)pyrrolidin-3-yl]-9H-purin-6-amine]
15 | >10 | 26 | CCn1c(-c2cnc(C)nc2)nc2c(N[C@H]3CCN(C(=O)C4(C)CCCO4)C3)ncnc21 (mixture of isomers) [Compound 2-68, 9-ethyl-8-(2-methylpyrimidin-5-yl)-N-{(3S)-1-[((S and R)-2-methyltetrahydrofuran-2-yl)carbonyl]pyrrolidin-3-yl}-9H-purin-6-amine]
16 | >10 | < 1 | CCn1c(-c2ccc(C(F)(F)F)nc2)nc2c(N[C@H]3CCN(C(=O)[C@@H]4CC4(C)C)C3)ncnc21 [Compound 2-51, N-[(3S)-1-{[(1R)-2,2-dimethylcyclopropyl]carbonyl}pyrrolidin-3-yl]-9-ethyl-8-[6-(trifluoromethyl)pyridin-3-yl]-9H-purin-6-amine]
17 | >10 | 10 | CCn1c(-c2cnc(C)nc2)nc2c(NC3CN(C(=O)C4CC4)CC3(F)F)ncnc21 (single isomer, unassigned) [Compound 2-26, N-[(3S or 3R)-1-(cyclopropylcarbonyl)-4,4-difluoropyrrolidin-3-yl]-9-ethyl-8-(2-methylpyrimidin-5-yl)-9H-purin-6-amine]
18 | >10 | 12 | CCn1c(-c2cnc(C)nc2)nc2c(N[C@H]3CCN(C(=O)[C@H]4C[C@H]4C)C3)ncnc21 [Compound 2-91, 9-ethyl-N-[(3S)-1-{[(1S,2R)-2-methylcyclopropyl]carbonyl}pyrrolidin-3-yl]-8-(2-methylpyrimidin-5-yl)-9H-purin-6-amine]
19 | >10 | 46 | CCn1c(-c2cnc(C)nc2)nc2c(N[C@H]3C[C@@H](C(=O)NC)N(C(=O)C4CC4)C3)ncnc21 [Compound 15-9, (4S)-1-(cyclopropylcarbonyl)-4-{[9-ethyl-8-(2-methylpyrimidin-5-yl)-9H-purin-6-yl]amino}-N-methyl-L-prolinamide]
20 | >10 | 5.3 | CCn1c(-c2cnc(C)nc2)nc2c(N[C@H]3CC[C@@H](C(=O)N(C)C)C3)ncnc21 [Compound 5-4, (1R,3S)-3-{[9-ethyl-8-(2-methylpyrimidin-5-yl)-9H-purin-6-yl]amino}-N,N-dimethylcyclopentanecarbox-amide]
21 | >10 | < 1 | CCn1c(-n2cnc3c2CCCC3)nc2c(N[C@H]3CCN(C(=O)C4CC4)C3)ncnc21 [Compound 8-8, N-[(3S)-1-(cyclopropylcarbonyl)pyrrolidin-3-yl]-9-ethyl-8-(4,5,6,7-tetrahydro-1H-benzimidazol-1-yl)-9H-purin-6-amine]
22 | >10 | 46 | CCn1c(-c2cnc(C)nc2)nc2c(N[C@H]3CCN(C(=O)CCNC)C3)ncnc21 [Compound 2-86, 9-ethyl-N-{(3S)-1-[3-(methylamino)propanoyl]pyrroli-din-3-yl}-8-(2-methylpyrimidin-5-yl)-9H-purin-6-amine]
23 | >10 | 49 | CCn1c(-c2cnc(C)nc2)nc2c(N[C@H]3CCCN(C(=O)OC(C)(C)C)C3)ncnc21 [Compound 1-16, tert-butyl (3S)-3-{[9-ethyl-8-(2-methylpyrimidin-5-yl)-9H-purin-6-yl]amino}piperidine-1-carboxylate]
24 | >10 | 73 | CCn1c(C(N)=O)nc2c(N[C@H]3CCN(C(=O)C4CC4)C3)ncnc21 [Compound 6-11, 6-{[(3S)-1-(cyclopropylcarbonyl)pyrrolidin-3-yl]amino}-9-ethyl-9H-purine-8-carboxamide]
25 | >10 | 28 | CCn1c(C(F)F)nc2c(N[C@H]3CCN(c4ccccn4)C3)ncnc21 [Compound 7-26, 8-(difluoromethyl)-9-ethyl-N-[(3S)-1-pyridin-2-ylpyrrolidin-3-yl]-9H-purin-6-amine]
26 | >10 | 47 | CCn1c(CC2CC2)nc2c(N[C@H]3CCN(C(=O)C4CC4)C3)ncnc21 [Compound 7-1, N-[(3S)-1-(cyclopropylcarbonyl)pyrrolidin-3-yl]-8-(cyclopropylmethyl)-9-ethyl-9H-purin-6-amine]
27 | >10 | 7.7 | CCC(=O)N1CC[C@H](Nc2ncnc3c2nc(-c2ccc4cc[nH]c4c2)n3C)C1 [Compound 3-4, (S)-1-(3-((8-(1H-indol-6-yl)-9-methyl-9H-purin-6-yl)amino)pyrrolidin-1-yl)propan-1-one]
28 | >10 | 6.9 | CCn1c(-c2cnc(C)nc2)nc2c(N[C@H]3CCN(c4ncccn4)C3)ncnc21 [Compound 4-2, 9-ethyl-8-(2-methylpyrimidin-5-yl)-N-[(3S)-1-pyrimidin-2-ylpyrrolidin-3-yl]-9H-purin-6-amine]
29 | >10 | 8 | CCn1c(-c2cnc(C)nc2)nc2c(N[C@H]3CCN(C(=O)C4CCCC4)C3)ncnc21 [Compound 2-23, (S)-cyclopentyl(3-((9-ethyl-8-(2-methylpyrimidin-5-yl)-9H-purin-6-yl)amino)pyrrolidin-1-yl)methanone]
